Source: US20250213645A1, “PHARMACEUTICAL COMPOSITION FOR MODULATING IMMUNE RESPONSE” (L-BASE CO., LTD., priority 2021, published 2025)
Where a SMILES comes first, the peptide text is derived from it. Where no end group is shown, it is not given here.

Columns and labels:
[1] = test system: CT26 cancer cells in which CAGE expression was induced; test: Anticancer efficacy of compound and anti-PD-1, alone or combined, in syngeneic mouse model; assay type: in vivo; details: for absolute weight of the tumor: tumor removed on day 15, compound 10 mpk i.v. every 2 days, anti-PD-1 10 mg/kg i.p. every 3 days; for tumor volume (tumor growth): vs control, compound 10 mpk intravenously every 2 days, anti-PD-1 10 mg/kg intraperitoneally every 3 days, up to day 15
Experimental: (§1) CT26 cancer cells in which CAGE expression was induced were mixed with Matrigel in a ratio of 1:1, and 200 μL of the cell mixture was injected into a female BALB/c mouse at a concentration of 1×10^6 cells/mouse to produce a syngeneic mouse model. After cell inoculation was completed, when the volume of the formed tumor reached 70 to 120 mm^3, groups were randomly separated and drug administration was performed. A cancer immunotherapy drug (anti-PD-1) was intraperitoneally administered at intervals of 3 days at a concentration of 10 mg/kg (mpk), and the compounds according to the present invention, AQTGTGKT, 3-PhPh-AQTGTGKT, and naphthyl-AQTGTGKT, were administered intravenously at intervals of 2 days at a concentration of 10 mpk. The size of the tumor was measured twice a week to calculate a tumor volume, and the weight of a subject was also measured. On day 15 after the start of administration, the tumor was removed, and the absolute weight was measured.

[2] = test system: CXCL10; test: CXCL10 mRNA expression in tumor tissue by real-time PCR; assay type: in vivo, mouse; details: relative to control, 2^-ΔΔCt method; FIG. 12
Experimental: After administering the cancer immunotherapy drug and the compound of the present invention alone or in combination to a syngeneic mouse model produced using CT26 cells in which CAGE expression was induced, tumor tissue was isolated from each subject. RNA was extracted from the obtained tumor tissue, cDNA was synthesized, and then an mRNA expression level of the CXCL10 gene was measured through real-time PCR. For each mRNA, a relative expression level compared to the control was calculated through the 2^−ΔΔ^Ct method.

[3] = test system: CT26 cancer cells in which CAGE expression was induced; test: Anticancer efficacy of 3-PhPh-AQTGTGKT and anti-CTLA4, alone or combined, in syngeneic mouse model; assay type: in vivo; details: 3-PhPh-AQTGTGKT 10 mpk i.v. every 2 days, anti-CTLA4 5 mpk i.p. every 3 days
Experimental: as §1, with “(anti-CTLA4)” for “(anti-PD-1)”, “5 mpk,” for “10 mg/kg (mpk),”, “compound of” for “compounds according to”, “invention (3-PhPh-AQTGTGKT) was intravenously” for “invention, AQTGTGKT, 3-PhPh-AQTGTGKT, and naphthyl-AQTGTGKT, were”, “administered” for “administered intravenously”

[4] = test system: T cells or macrophages; assay type: in vivo, mouse
Experimental: (§2) After administering the cancer immunotherapy drug and the compound of the present invention alone or in combination to a syngeneic mouse model produced using CT26 cells in which CAGE expression was induced, tumor tissue was isolated from each subject. The obtained tumor tissue was made into a paraffin block and then sectioned, and histological analysis was performed by performing H&E staining and microscopic observation on tissue slides. […] Fluorescent images were taken at 20× magnification using a confocal microscope, and the number of T cells and macrophages (M2- and M1-type macrophages) on the entire screen was then measured and analyzed.

[5] = test system: CT26 cells in which CAGE expression was induced; test: Histological analysis of tumor tissue by H&E staining; assay type: in vivo, mouse; details: single or combined administration; FIG. 11A
Experimental: as §2

[6] = test system: CT26 cancer cells in which CAGE expression was induced; test: Overall survival (OS) period, Kaplan Meier analysis, syngeneic mouse model; assay type: in vivo; details: for 39 days, 3-PhPh-AQTGTGKT 10 mpk i.v. every 2 days, anti-CTLA4 5 mpk, anti-PD-1 10 mpk every 3 days
Experimental: Next, an overall survival (OS) period according to the single or combined administration of the compound of the present invention and the cancer immunotherapy drug was compared. CT26 cancer cells in which CAGE expression was induced were mixed with Matrigel in a ratio of 1:1, and 200 μL of the cell mixture was injected into a female BALB/c mouse at a concentration of 1×10^6 cells/mouse to produce a syngeneic mouse model. After cell inoculation was completed, when the volume of the formed tumor reached 70 to 120 mm^3, groups were randomly separated and drug administration was performed. The cancer immunotherapy drug (anti-CTLA4) was administered at intervals of 3 days at a concentration of 5 mpk, and the compound of the present invention (3-PhPh-AQTGTGKT) was intravenously administered at intervals of 2 days at a concentration of 10 mpk, and the survival rate of the subjects was analyzed using Kaplan Meier analysis.
Subsequently, the effect of the coadministration of the compound of the present invention and a different cancer immunotherapy drug on the survival rate of subjects was confirmed. CT26 cancer cells in which CAGE expression was induced were mixed with Matrigel in a ratio of 1:1, and 200 μL of the cell mixture was injected into a female BALB/c mouse at a concentration of 1×10^6 cells/mouse to produce a syngeneic mouse model. […]

Molecule | absolute weight of the tumor [1] | tumor volume (tumor growth) [1] | CXCL10 mRNA expression level in tumor tissue [2] | tumor growth (tumor volume) ([3]; from day 11) | absolute weight of the tumor ([3]; tumor removed on day 15) | frequency of M2 macrophages (CD206) in tumor tissue ([4]; FIG. 11C) | frequency of total macrophages (F4/80) in tumor tissue ([4]; FIG. 11C) | frequency of cytotoxic T cells (CD8 T cells) in tumor tissue ([4]; mouse, in vivo) | frequency of total T cells (CD4 T cells) in tumor tissue ([4]; vs control or single administration groups, FIG. 11B) | tumor cell death in tumor tissue (H&E staining) [5] | subjects survived ([6]; of 10 subjects, control 2 survived) | subjects died ([6]; control 8 died)
C[C@H](NC(=O)c1cccc(-c2ccccc2)c1)C(=O)N[C@@H](CCC(N)=O)C(=O)N[C@H](C(=O)NCC(=O)N[C@H](C(=O)NCC(=O)N[C@@H](CCCCN)C(=O)N[C@H](C(=O)O)[C@@H](C)O)[C@@H](C)O)[C@@H](C)O [3-PhPh-AQTGTGKT] (HELM PEPTIDE1{[O=C(c1cccc(-c2ccccc2)c1)[*:2]].A.Q.T.G.T.G.K.T}$$$$V2.0) | lower than that of the control | tumor growth began to decrease compared to the control | similar | statistically significant decrease in tumor growth | lower than that of the control | no significant difference between the frequencies of macrophages | no significant difference between the frequencies of macrophages | no significant differences in the frequency of immune cells | no significant differences in the frequency of immune cells | some areas where tumor cells were killed were observed | 3 | 7 out of 10 subjects
C[C@H](NC(=O)c1ccc2ccccc2c1)C(=O)N[C@@H](CCC(N)=O)C(=O)N[C@H](C(=O)NCC(=O)N[C@H](C(=O)NCC(=O)N[C@@H](CCCCN)C(=O)N[C@H](C(=O)O)[C@@H](C)O)[C@@H](C)O)[C@@H](C)O [naphthyl-AQTGTGKT, Naphthyl-AQTGTGKT] (HELM PEPTIDE1{[O=C(c1ccc2ccccc2c1)[*:2]].A.Q.T.G.T.G.K.T}$$$$V2.0) | no significant difference between the tumor weight | no significant difference in tumor volume |  |  |  |  |  |  |  |  |  | 
AQTGTGKT [AQTGTGKT] | no significant difference between the tumor weight | no significant difference in tumor volume |  |  |  |  |  |  |  |  |  | 
